pIC50, pKi: −log10 of the molar value. Read-outs that look alike come from different tables or passages of the source.
Columns and labels:
human NMB receptor (BB1) = molecular target: T1, human NMB receptor (BB1) (Homo sapiens, UniProt P28336); assay: BB1 binding assay ([125I][Tyr4]bombesin displacement, CHO-K1 membranes); settings: for pKi: Table 1, human NMB receptor binding affinity, Ki from IC50 by Cheng-Prusoff, read-out: NMB Ki
T1 construct: expressed in transfected cells; membranes prepared from the cells
T1 sequence (P28336 whole entry): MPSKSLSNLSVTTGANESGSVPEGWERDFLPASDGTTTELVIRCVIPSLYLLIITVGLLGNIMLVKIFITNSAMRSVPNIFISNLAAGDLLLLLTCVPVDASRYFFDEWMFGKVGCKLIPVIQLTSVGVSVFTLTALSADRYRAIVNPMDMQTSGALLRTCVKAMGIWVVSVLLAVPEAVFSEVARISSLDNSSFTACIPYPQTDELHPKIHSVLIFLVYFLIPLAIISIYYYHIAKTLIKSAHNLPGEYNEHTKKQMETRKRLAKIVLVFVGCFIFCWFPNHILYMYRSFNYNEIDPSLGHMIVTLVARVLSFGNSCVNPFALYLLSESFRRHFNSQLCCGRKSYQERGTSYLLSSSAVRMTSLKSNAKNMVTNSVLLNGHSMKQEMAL
Outline: (§1)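 Membranes from CHO-K1 cells stably expressing human NMB (BB1) or GRP (BB2) receptors, in 50 mM Tris-HCl pH 7.4 with BSA and protease inhibitors, incubated with [125I][Tyr4]bombesin (<0.1 nM) for 60 min (BB1) or 90 min (BB2). Nonspecific binding defined with 1 μM bombesin; filtration and gamma counting; IC50 converted to Ki by Cheng-Prusoff.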

human GRP receptor (BB2) = molecular target: T2, human GRP receptor (BB2) (Homo sapiens, UniProt P30550); assay: BB2 binding assay ([125I][Tyr4]bombesin displacement, CHO-K1 membranes)
T2 construct: expressed in transfected cells; membranes prepared from the cells
T2 sequence (P30550 whole entry): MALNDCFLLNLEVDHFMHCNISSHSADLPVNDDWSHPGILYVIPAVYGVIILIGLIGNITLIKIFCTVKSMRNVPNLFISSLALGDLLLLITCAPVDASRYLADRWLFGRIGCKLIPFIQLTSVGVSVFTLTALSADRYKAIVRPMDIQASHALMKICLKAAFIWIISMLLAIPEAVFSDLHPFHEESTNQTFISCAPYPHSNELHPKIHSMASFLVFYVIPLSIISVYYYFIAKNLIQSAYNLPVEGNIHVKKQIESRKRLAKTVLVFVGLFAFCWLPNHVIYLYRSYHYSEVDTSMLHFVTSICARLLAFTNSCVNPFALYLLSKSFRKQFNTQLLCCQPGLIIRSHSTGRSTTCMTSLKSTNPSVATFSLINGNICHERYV
Outline: as §1

[1] = Table 3, N-acyl derivatives of Intermediate III-7
[2] = second 'TABLE 4', N-terminal urethane derivatives of Intermediate III-7

Molecule	pIC50 (human NMB receptor (BB1); [1])	pIC50 (human GRP receptor (BB2); [1])	pIC50 (human NMB receptor (BB1); [2])	pIC50 (human GRP receptor (BB2); [2])	other results
C[C@@](Cc1c[nH]c2ccccc12)(Nc1cncnc1)C(=O)NCC1(c2ccccn2)CCCCC1 [Example 20, (S)-3-(1H-Indol-3-yl)-2-methyl-N-(1-pyridin-2-yl-cyclohexylmethyl)-2-(pyrimidin-5-ylamino)-propionamide]					pKi (human NMB receptor (BB1)): 5.50; melting point: 95 to 98 °C
C[C@@](Cc1c[nH]c2ccccc12)(Nc1cncc2ccccc12)C(=O)NCC1(c2ccccn2)CCCCC1 [Example 19, (S)-3-(1H-Indol-3-yl)-2-(isoquinolin-4-ylamino)-2-methyl-N-(1-pyridin-2-yl-cyclohexylmethyl)-propionamide]					pKi (human NMB receptor (BB1)): 5.90; melting point: 98 to 101 °C
C[C@@](Cc1c[nH]c2ccccc12)(NC(=O)c1ccc(Cl)cc1)C(=O)NCC1(c2ccccn2)CCCCC1 [Example 34, 4-Chloro-N—{(S)-2-(1H-indol-3-yl)-1-methyl-1-[(1-pyridin-2-yl-cyclohexyl-methyl)-carbamoyl]-ethyl}-benzamide]	5.87	< 5.00			
C[C@@](Cc1c[nH]c2ccccc12)(NC(=O)OCc1ccccc1F)C(=O)NCC1(c2ccccn2)CCCCC1 [Example 94, {(S)-2-(1H-Indol-3-yl)-1-methyl-1-[(1-pyridin-2-yl-cyclohexylmethyl)-carbamoyl]-ethyl}-carbamic acid 2-fluoro-benzyl ester]			6.03	< 5.00	
C[C@@](Cc1c[nH]c2ccccc12)(NC(=O)Cc1ccccc1F)C(=O)NCC1(c2ccccn2)CCCCC1 [Example 55, (S)-2-[2-(2-Fluoro-phenyl)-ethanoylamino]-3-(1H-indol-3-yl)-2-methyl-N-(1-pyridin-2-yl-cyclohexylmethyl)-propionamide]	6.06	5.81			
C[C@@](Cc1c[nH]c2ccccc12)(NS(=O)(=O)c1ccccc1Cl)C(=O)NCC1(c2ccccn2)CCCCC1 [Example 113, (S)-2-(2-chloro-benzenesulfonylamino)-3-(1H-indol-3-yl)-2-methyl-N-(1-pyridin-2-yl-cyclohexylmethyl)-propionamide]					pIC50 (human NMB receptor (BB1)): 6.59; pIC50 (human GRP receptor (BB2)): < 5.00
COc1ccc(COC(=O)N[C@@](C)(Cc2c[nH]c3ccccc23)C(=O)NCC2(c3ccccn3)CCCCC2)cc1OC [Example 88, {(S)-2-(1H-Indol-3-yl)-1-methyl-1-[(1-pyridin-2-yl-cyclohexylmethyl)-carbamoyl]-ethyl}-carbamic acid 3,4-dimethoxy-benzyl ester]			5.75	< 5.00	
Cc1ccc(COC(=O)N[C@@](C)(Cc2c[nH]c3ccccc23)C(=O)NCC2(c3ccccn3)CCCCC2)cc1 [Example 108, {(S)-2-(1H-Indol-3-yl)-1-methyl-1-[(1-pyridin-2-yl-cyclohexylmethyl)-carbamoyl]-ethyl}-carbamic acid 4-methyl-benzyl ester]			5.96	< 5.00	
C[C@@](Cc1c[nH]c2ccccc12)(NC(=O)c1ccc2ncsc2c1)C(=O)NCC1(c2ccccn2)CCCCC1 [Example 72, Benzothiazole-6-carboxylic acid {(S)-2-(1H-indol-3-yl)-1-methyl-1-[(1-pyridin-2-yl-cyclohexylmethyl)-carbamoyl]-ethyl}-amide]	6.05	5.83			
COc1ccc(C2(CNC(=O)[C@](C)(Cc3ccccc3)Nc3nc(-c4ccc([N+](=O)[O-])cc4)co3)CCCCC2)nc1 [Example 12, (S)-N-[1-(5-Methoxy-pyridin-2-yl)-cyclohexylmethyl]-2-methyl-2-[4-(4-nitro-phenyl)-oxazol-2-ylamino]-3-phenyl-propionamide]					pKi (human NMB receptor (BB1)): 7.80; pKi (human GRP receptor (BB2); Table 1, human GRP receptor binding affinity, Ki from IC50 by Cheng-Prusoff, read-out: GRP Kj): 5.55
C[C@@](Cc1c[nH]c2ccccc12)(NC(=O)OCc1cccc(Oc2ccccc2)c1)C(=O)NCC1(c2ccccn2)CCCCC1 [Example 106, {(S)-2-(1H-Indol-3-yl)-1-methyl-1-[(1-pyridin-2-yl-cyclohexylmethyl)-carbamoyl]-ethyl}-carbamic acid 3-phenoxy-benzyl ester]			5.87	< 5.00	
Cc1ccc(C(=O)N[C@@](C)(Cc2c[nH]c3ccccc23)C(=O)NCC2(c3ccccn3)CCCCC2)s1 [Example 75, 5-Methyl-thiophene-2-carboxylic acid {(S)-2-(1H-indol-3-yl)-1-methyl-1-[(1-pyridin-2-yl-cyclohexylmethyl)-carbamoyl]-ethyl}-amide]	5.78	< 5.00			
C[C@@](Cc1c[nH]c2ccccc12)(NC(=O)c1ncoc1-c1ccccc1)C(=O)NCC1(c2ccccn2)CCCCC1 [Example 80, 5-Phenyl-oxazole-4-carboxylic acid {(S)-2-(1H-indol-3-yl)-1-methyl-1-[(1-pyridin-2-yl-cyclohexylmethyl)-carbamoyl]-ethyl}-amide]	5.58	< 5.00			
C[C@@](Cc1c[nH]c2ccccc12)(NS(=O)(=O)c1ccc(Cl)cc1)C(=O)NCC1(c2ccccn2)CCCCC1 [Example 116]					pIC50 (human NMB receptor (BB1)): 6.43; pIC50 (human GRP receptor (BB2)): 5.36
COc1ccccc1CC(=O)N[C@@](C)(Cc1c[nH]c2ccccc12)C(=O)NCC1(c2ccccn2)CCCCC1 [Example 85, (S)-3-(1H-Indol-3-yl)-2-[2-(2-methoxy-phenyl)-ethanoylamino]-2-methyl-N-(1-pyridin-2-yl-cyclohexylmethyl)-propionamide]	5.88	5.61			
CCOc1cccc(COC(=O)N[C@@](C)(Cc2c[nH]c3ccccc23)C(=O)NCC2(c3ccccn3)CCCCC2)c1 [Example 102, {(S)-2-(1H-Indol-3-yl)-1-methyl-1-[(1-pyridin-2-yl-cyclohexylmethyl)-carbamoyl]-ethyl}-carbamic acid 3-ethoxy-benzyl ester]			5.97	< 5.00	
C[C@@](Cc1c[nH]c2ccccc12)(NC(=O)c1ccc2[nH]ccc2c1)C(=O)NCC1(c2ccccn2)CCCCC1 [Example 67, 1H-Indole-5-carboxylic acid {(S)-2-(1H-indol-3-yl)-1-methyl-1-[(1-pyridin-2-yl-cyclohexylmethyl)-carbamoyl]-ethyl}-amide]	5.73	< 5.00			
C[C@@](Cc1c[nH]c2ccccc12)(NC(=O)OCc1ccccc1Cl)C(=O)NCC1(c2ccccn2)CCCCC1 [Example 95, {(S)-2-(1H-Indol-3-yl)-1-methyl-1-[(1-pyridin-2-yl-cyclohexylmethyl)-carbamoyl]-ethyl}-carbamic acid 2-chloro-benzyl ester]			6.20	< 5.00	
C[C@@](Cc1c[nH]c2ccccc12)(NC(=O)Cc1cccc(O)c1)C(=O)NCC1(c2ccccn2)CCCCC1 [Example 53, (S)-2-[2-(3-Hydroxy-phenyl)-ethanoylamino]-3-(1H-indol-3-yl)-2-methyl-N-(1-pyridin-2-yl-cyclohexylmethyl)-propionamide]	5.84	< 5.00			
C[C@@](Cc1c[nH]c2ccccc12)(NS(=O)(=O)c1ccccc1-c1ccccc1)C(=O)NCC1(c2ccccn2)CCCCC1 [Example 154, (S)-2-(biphenyl-2-sulfonylamino)-3-(1H-indol-3-yl)-2-methyl-N-(1-pyridin-2-yl-cyclohexylmethyl)-propionamide]					pIC50 (human NMB receptor (BB1)): 6.78; pIC50 (human GRP receptor (BB2)): < 5.00
C[C@@](Cc1c[nH]c2ccccc12)(NC(=O)OCc1ccc(Cl)cc1)C(=O)NCC1(c2ccccn2)CCCCC1 [Example 93, {(S)-2-(1H-Indol-3-yl)-1-methyl-1-[(1-pyridin-2-yl-cyclohexylmethyl)-carbamoyl]-ethyl}-carbamic acid 4-chloro-benzyl ester]			6.17	< 5.00	
C[C@@](Cc1c[nH]c2ccccc12)(NS(=O)(=O)c1cccc2ccccc12)C(=O)NCC1(c2ccccn2)CCCCC1 [Example 115, (S)-3-(1H-indol-3-yl)-2-methyl-2-(naphthalene-1-sulfonylamino)-N-(1-pyridin-2-yl-cyclohexylmethyl)-propionamide]					pIC50 (human NMB receptor (BB1)): 6.73; pIC50 (human GRP receptor (BB2)): 5.80
C[C@@](Cc1c[nH]c2ccccc12)(NC(=O)OC1Cc2ccccc2C1)C(=O)NCC1(c2ccccn2)CCCCC1 [Example 90, {(S)-2-(1H-Indol-3-yl)-1-methyl-1-[(1-pyridin-2-yl-cyclohexylmethyl)-carbamoyl]-ethyl}-carbamic acid indan-2-yl ester]			6.02	< 5.00	
Cc1ccc(S(=O)(=O)N[C@@](C)(Cc2c[nH]c3ccccc23)C(=O)NCC2(c3ccccn3)CCCCC2)cc1Cl [Example 158]					pIC50 (human NMB receptor (BB1)): 6.52; pIC50 (human GRP receptor (BB2)): 5.40
C[C@@](Cc1c[nH]c2ccccc12)(NC(=O)OCc1cccc(C#N)c1)C(=O)NCC1(c2ccccn2)CCCCC1 [Example 103, {(S)-2-(1H-Indol-3-yl)-1-methyl-1-[(1-pyridin-2-yl-cyclohexylmethyl)-carbamoyl]-ethyl}-carbamic acid 3-cyano-benzyl ester]			7.07	< 5.00	
(S)-3-(1H-Indol-3-yl)-2-methyl-N-(1-pyridin-2-yl-cyclohexylmethyl)-2-(2-p-tolyl-ethanoylamino)-propionamide [Example 51]	6.03	< 5.00			
C[C@@](Cc1c[nH]c2ccccc12)(NC(=O)c1cc2ccccc2[nH]1)C(=O)NCC1(c2ccccn2)CCCCC1 [Example 61, 1H-Indole-2-carboxylic acid {(S)-2-(1H-indol-3-yl)-1-methyl-1-[(1-pyridin-2-yl-cyclohexylmethyl)-carbamoyl]-ethyl}-amide]	6.54	6.28			
C[C@@](Cc1c[nH]c2ccccc12)(NC(=O)Cc1ccc(O)cc1)C(=O)NCC1(c2ccccn2)CCCCC1 [Example 52, (S)-2-[2-(4-Hydroxy-phenyl)-ethanoylamino]-3-(1H-indol-3-yl)-2-methyl-N-(1-pyridin-2-yl-cyclohexylmethyl)-propionamide]	5.50	< 5.00			
